From patent publication US8097422B2, “Kir channel modulators” (Salk Institute for Biological Studies, priority 2007, dated 2012)
Where two headings read alike, the source gives them in different places. Values belong to the compound of their own block, whether it stands above or below them.

How the values were obtained:
Kir3 channels = molecular target: T1, Kir3 channels (Mus musculus, UniProt P48542); experiment: patch-clamp determination of ion transport activity: activation of Kir3 channels; type: cell-based; settings: for Emax at 100000 µM: read-out: Maximal activation of Kir3 channels relative to that of 100 mM (±)MPD
T1 construct: other: patch-clamp; other: 100 mM
T1 sequence (P48542 1-425): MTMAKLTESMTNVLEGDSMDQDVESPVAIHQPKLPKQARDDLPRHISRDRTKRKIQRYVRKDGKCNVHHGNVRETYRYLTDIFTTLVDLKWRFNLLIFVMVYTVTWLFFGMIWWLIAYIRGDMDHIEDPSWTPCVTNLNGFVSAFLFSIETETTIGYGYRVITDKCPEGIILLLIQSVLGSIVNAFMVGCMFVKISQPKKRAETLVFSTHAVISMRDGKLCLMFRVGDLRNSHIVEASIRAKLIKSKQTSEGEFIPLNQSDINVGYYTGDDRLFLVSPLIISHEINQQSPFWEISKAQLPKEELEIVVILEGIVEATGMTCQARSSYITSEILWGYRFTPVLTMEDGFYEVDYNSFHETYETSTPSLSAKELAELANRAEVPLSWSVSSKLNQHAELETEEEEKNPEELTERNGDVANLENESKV
Excerpt: It has been determined that inwardly rectifying potassium (Kir) channels are regulated directly by small molecule alcohol compounds. Three-dimensional crystallographic analysis of Kir channels has elucidated atomic details of binding pocket interactions with 2-methyl-2,4-pentanediol (MPD). MPD inhibits Kir2 channel activity and activates Kir3 channel activity. Amino acid substitutions in this hydrophobic pocket of the channel protein may alter the response to MPD. As determined by patch-clamp determinations of ion transport activity, a racemic mixture of 2-methyl-2,4-pentanediol, (±)MPD, activates Kir3 channels with an EC50 of >200 mM and inhibits Kir2 homotetramer channels with an IC50 of ˜200 mM. […] Bupivacaine inhibits Kir3.1/3.4 and Kir3.1/3.2 channels with an IC50 of ˜20-40 micromolar.
The following also were observed. Maximal activation of Kir3 channels by 100 mM (±)MPD is 280% that of 100 mM EtOH. Maximal activation of Kir3 channels by 100 mM R(−)2 methyl-2,4-pentanediol is 60% that of 100 mM (±)MPD. Maximal activation of Kir3 channels by 100 mM 3-methyl-1,3,5-pentanetriol is 70% that of 100 mM (±)MPD. Maximal activation of Kir3 channels by 100 mM 2,5-dimethyl-1,2,6-hexanetriol is 70% that of 100 mM (±)MPD. Maximal activation of Kir3 channels by 100 mM (±) 2,4-pentanediol is 50% that of 100 mM (±)MPD.

IRK1 channel = molecular target: T2, IRK1 channel (Mus musculus, UniProt P35561); experiment: whole-cell patch clamp, HEK293T cells transfected with IRK1; type: cell-based; settings: 1 mM Ba++
T2 construct: expressed in transfected cells; host or cells: HEK293T
T2 sequence (P35561 1-428): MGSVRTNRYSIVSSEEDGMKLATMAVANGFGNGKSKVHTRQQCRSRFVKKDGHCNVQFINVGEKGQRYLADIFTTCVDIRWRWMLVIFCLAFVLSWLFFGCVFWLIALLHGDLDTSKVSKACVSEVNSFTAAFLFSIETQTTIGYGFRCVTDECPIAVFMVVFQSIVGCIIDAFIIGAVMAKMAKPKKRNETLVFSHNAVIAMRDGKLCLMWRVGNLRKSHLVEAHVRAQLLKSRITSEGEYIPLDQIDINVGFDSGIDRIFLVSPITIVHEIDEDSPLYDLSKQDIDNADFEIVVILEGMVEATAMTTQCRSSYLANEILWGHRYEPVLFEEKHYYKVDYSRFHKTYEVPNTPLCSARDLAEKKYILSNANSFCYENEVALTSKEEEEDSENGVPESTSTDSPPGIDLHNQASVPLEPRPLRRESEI
Experimental: Using whole-cell patch clamp, technique in HEK293T cells transfected with IRK1 or GIRK2 channels, it was determined that MPD does in fact modulate these channels. Addition of 100 mM MPD inhibits the inward currents of the IRK1 channel, without changing the reversal potential or altering inward rectification (FIG. 1e).
(§1) GIRK2c, GIRK4, IRK1, M2R and m-Phosducin were subcloned into PCDNA3.1 vector (Invitrogen). Point mutations were introduced by Quickchange site directed mutagenesis kit (Stratagene). The GIRK2 PIP mutant was generated by overlap-PCR method. Briefly, amino acid 216-NLRKSHL-222 (SEQ ID NO: 25) of IRK1 was swapped into 228-DLRNSHL-234 (SEQ ID NO: 26) of GIRK2, in the region designated βC-βD loop in the crystal structure. Mutations were confirmed by automated DNA sequencing methods.
(§2) HEK 293T cells were cultured in DMEM supplemented with 10% FBS, and 1× Glutamax (Invitrogen) in a humidified 37° incubator with 5% CO2. Cells were plated in a 12 well dish, and were transiently transfected using Lipofectamine 2000 (Invitrogen). After 12-24 hrs, cells were re-plated to 12-mm glass coverslips coated with poly-D-Lysine (20 microgram/ml).
(§3) HEK293 cells were transfected with 0.2 micrograms of channel cDNA. The cells were co-transfected with 0.04 micrograms of eYFP cDNA to identify transfected cells. 0.8 micrograms of Muscarinic Receptor 2 (M2R) was also co-transfected for experiments with Carbachol. For experiments with and without m-phosducin, 0.8 ug of m-phosducin cDNA was used versus a PCDNA3.1 vector control.
(§4) Whole-cell patch clamp recordings were performed 24-72 hrs after transfection. Borosilicate glass electrodes (Warner Instruments) of […] filled with intracellular solution (130 mM KCl, 20 mM NaCl, 5 mM EGTA, 2.56 mM K2ATP, 5.46 mM MgCl2, 0.30 mM Li2GTP, and 10 mM HEPES (pH 7.4)) was used. Membrane currents were recorded using Axopatch 200B (Axon Instruments) amplifier, adjusted electronically for cell capacitance and series resistance (80-100%), filtered at 1 kHz with an 8-pole Bessel filter and digitized at 5 kHz with a Digidata 1200 interface (Axon Instruments). The cells rapidly perfused with a 20 mM K^+ (20K) solution (20 mM KCl, 140 mM NaCl, 0.5 mM CaCl2, 2 mM MgCl2 and 10 mM HEPES (pH7.4)). Alcohols, 5 μM Carbachol, and 1 mM BaCl2 (diluted in 20K solution) were applied from outside the cell with the rapid perfusion system (Warner Instruments). Whole-cell currents were measured using a ramp protocol that holds at −40 mV, steps to −100 mV then ramps to +50 mV and repeats every 2 seconds. Current-voltage relationships also were obtained from the ramp protocol. This protocol was used to measure the inwardly rectifying currents at −100 mV and to ensure stability of recording by monitoring a reversal potential and inward rectification. Current density was measured by dividing inward current at −100 mV by membrane capacitance that was compensated during the recording. Basal currents were measured as the Ba^++ blocked inward currents at −100 mV. Alcohol and Carbachol modulated currents were measured by averaging two consecutive current readings upon reaching steady state, and subtracting the averaged basal current before and after the application of modulator. Pooled data are presented as Mean±SEM and evaluated for statistical significance by a 1-way ANOVA, followed by Bonferroni's multiple comparison post-hoc test.

[1] = molecular target: T3, GIRK2 channel (wild type) (Mus musculus, UniProt P48542); experiment: whole-cell patch clamp, HEK293T cells transfected with GIRK2; type: cell-based; settings: 1 mM Ba++, MPD doses up to 300 mM
T3 construct: expressed in transfected cells; host or cells: HEK293T
T3 sequence (P48542 1-425): T1 sequence (P48542 1-425)
Excerpt: as §1, §2, §3, §4

Kir1 and Kir2 channels = settings: cited from earlier work
[2] = test system: Kir3.1/3.4 and Kir3.1/3.2 channels; settings: cited from earlier work

SMILES: CC(O)(CCO)CCO [3-methyl-1,3,5-pentanetriol]
Emax at 100000 µM (Kir3 channels): 70%

SMILES: [Ba+2].[Cl-].[Cl-] [Ba^++, BaCl2]
block of IRK1 inwardly rectifying current (IRK1 channel): blocked completely | block of MPD-induced GIRK2 currents [1]: completely blocked

SMILES: CCCCN1CCCCC1C(=O)Nc1c(C)cccc1C (stereo not drawn) [Bupivacaine]
sensitivity of Kir1 and Kir2 channels to bupivacaine (Kir1 and Kir2 channels): insensitive | IC50 ([2]; certain Kir3 channels, read-out: IC50 for inhibition of certain Kir3 channels): ~20 µM | IC50 ([2]; reference [31], read-out: IC50 for inhibition of Kir3.1/3.4 and Kir3.1/3.2 channels): 20 to 40 µM

Continued, values first:

Emax at 100000 µM (Kir3 channels): 50%
SMILES: CC(O)CC(C)O (racemic) [(±) 2,4-pentanediol, 2,4-pentanediol]

Emax at 100000 µM (Kir3 channels): 70%
SMILES: CC(CO)CCC(C)(O)CO (stereo not drawn) [2,5-dimethyl-1,2,6-hexanetriol]

Maximal activation of Kir3 channels relative to that of 100 mM (±)MPD (Kir3 channels; 100 mM): 60%
SMILES: C[C@@H](O)CC(C)(C)O [R(−)2 methyl-2,4-pentanediol]
